Consider 26 compounds from article PMC7015663 (Journal of the American Chemical Society, 2019).

The first experiment deals with T1, RNase A (Bos taurus, UniProt P61823).
T1 sequence (P61823 27-150): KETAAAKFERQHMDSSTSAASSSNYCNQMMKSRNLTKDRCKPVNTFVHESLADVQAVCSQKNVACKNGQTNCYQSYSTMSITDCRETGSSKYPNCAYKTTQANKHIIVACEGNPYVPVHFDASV
In words: Salt dependence of inhibition/binding of RNase A. Format: biochemical, bovine. The conditions noted are these: salt dependence of inhibition (Figure S30).
Turning to `O=c1ccn([C@@H]2O[C@H](COP(=O)(O)OP(=O)(O)OP(=O)(O)OP(=O)(O)OP(=O)(O)O)[C@@H](O)[C@H]2O)c(=O)[nH]1` [p5U], the “δlogKd/δlog[Na+]” value was 3.2.

For a further experiment, the target named is T1, RNase A. In words: Inhibition kinetics of RNase A using a fluorogenic substrate. Format: biochemical, bovine. The settings on record: ± standard error of fitting one-site binding equation; this work.
`O=P(O)(O)OP(=O)(O)OP(=O)(O)O` [P3i] displayed an inhibition constant (Ki) of 23 ± 1 µM.

In the case of `O=P1(O)OP(=O)(O)OP(=O)(O)O1` [cP3i, trimetaphosphate], the Ki is 960 ± 80 µM.

As to `O=P1(O)OP(=O)(O)OP(=O)(O)OP(=O)(O)O1` [cP4i, tetrametaphosphate], the Ki is 30 ± 0.8 µM.

`O=P1(O)OP(=O)(O)OP(=O)(O)OP(=O)(O)OP(=O)(O)OP(=O)(O)O1` [cP6i, hexametaphosphate] registered a Ki of 6.2 ± 0.1 µM.

Regarding `Nc1ncnc2c1ncn2C1OC(COP(=O)(O)OP2(=O)OP(=O)(O)OP(=O)(O)OP(=O)(O)O2)C(O)C1O` (stereo not drawn) [cp4pA], the affinity, expressed as Ki, was 0.48 ± 0.03 µM.

For the compound `O=c1ccn(C2OC(COP(=O)(O)OP3(=O)OP(=O)(O)OP(=O)(O)OP(=O)(O)O3)C(O)C2O)c(=O)[nH]1` (stereo not drawn) [cp4pU], the affinity, expressed as Ki, was 0.98 ± 0.07 µM.

`O=c1ccn([C@@H]2O[C@H](COP(=O)(O)OP(=O)(O)OP(=O)(O)O)[C@@H](O)[C@H]2O)c(=O)[nH]1` [p3U] came in with an inhibition constant Ki of 8.3 ± 0.3 µM.

In the case of `Nc1ncnc2c1ncn2[C@@H]1O[C@H](COP(=O)(O)OP(=O)(O)OP(=O)(O)OP(=O)(O)O)[C@@H](O)[C@H]1O` [p4A, adenosine tetraphosphate], affinity was put at a Ki of 2.1 ± 0.2 µM.

`O=c1ccn([C@@H]2O[C@H](COP(=O)(O)OP(=O)(O)OP(=O)(O)OP(=O)(O)O)[C@@H](O)[C@H]2O)c(=O)[nH]1` [p4U, uridine tetraphosphate] returned a Ki of 1.8 ± 0.1 µM.

Take `Nc1ncnc2c1ncn2[C@@H]1O[C@H](COP(=O)(O)OP(=O)(O)OP(=O)(O)OP(=O)(O)OP(=O)(O)O)[C@@H](O)[C@H]1O` [p5A]: the Ki is 1.4 ± 0.06 µM.

With `O=c1ccn([C@@H]2O[C@H](COP(=O)(O)OP(=O)(O)OP(=O)(O)OP(=O)(O)OP(=O)(O)O)[C@@H](O)[C@H]2O)c(=O)[nH]1` [p5U], the affinity corresponds to a Ki of 0.068 ± 0.007 µM.

`Nc1ncnc2c1ncn2[C@@H]1O[C@H](COP(=O)(O)O)[C@@H](O)[C@H]1O` [pA] displayed an inhibitory constant (Ki) of 170 ± 6 µM.

The target of another experiment is T1, RNase A.
Experiment: not given
The conditions noted are these: ref [7]; cited from earlier work.
Consider `Cc1cn([C@H]2C[C@H](OP(=O)(O)OP(=O)(O)OC[C@H]3O[C@@H](n4cnc5c(N)ncnc54)C[C@@H]3O)[C@@H](CO)O2)c(=O)[nH]c1=O` [TppdA], for which the inhibition constant (Ki) was 4 µM.

For the compound `Nc1ncnc2c1ncn2[C@@H]1O[C@H](COP(=O)(O)OP(=O)(O)O[C@H]2C[C@H](n3ccc(=O)[nH]c3=O)O[C@@H]2CO)[C@@H](OP(=O)(O)O)[C@H]1O` [dUppAp], the inhibition constant (Ki) is 0.12 µM.

Regarding `Cc1cn(C2CC(OP(=O)(O)OP(=O)(O)OCC3OC(n4cnc5c(N)ncnc54)C(O)C3OP(=O)(O)O)C(COP(=O)(O)O)O2)c(=O)[nH]c1=O` (stereo not drawn) [pdTppAp], the inhibition constant (Ki) is 0.041 µM.

Turning to `Nc1ncnc2c1ncn2C1OC(COP(=O)(O)OP(=O)(O)OC2CC(n3ccc(=O)[nH]c3=O)OC2COP(=O)(O)O)C(OP(=O)(O)O)C1O` (stereo not drawn) [pdUppAp], the inhibition constant Ki is 0.027 µM.

For the compound `Nc1ncnc2c1ncn2[C@@H]1O[C@H](COP(=O)(O)OP(=O)(O)O)[C@@H](OP(=O)(O)O)[C@H]1O` [ppAp], the Ki was 0.24 µM.

The same experiment, now with this note: ref [10]; cited from earlier work.
As for `Nc1ncnc2c1ncn2[C@@H]1O[C@H](COP(=O)(O)OP(=O)(O)OP(=O)(O)OC[C@H]2O[C@@H](n3cnc4c(N)ncnc43)[C@H](O)[C@@H]2O)[C@@H](O)[C@H]1O` [Ap3A], the inhibition constant Ki was 29 µM.

`Nc1ncnc2c1ncn2[C@@H]1O[C@H](COP(=O)(O)OP(=O)(O)OP(=O)(O)OP(=O)(O)OC[C@H]2O[C@@H](n3cnc4c(N)ncnc43)[C@H](O)[C@@H]2O)[C@@H](O)[C@H]1O` [Ap4A]: the Ki is 2.6 µM.

In the case of `Nc1ncnc2c1ncn2[C@@H]1O[C@H](COP(=O)(O)OP(=O)(O)OP(=O)(O)OP(=O)(O)OP(=O)(O)OC[C@H]2O[C@@H](n3cnc4c(N)ncnc43)[C@H](O)[C@@H]2O)[C@@H](O)[C@H]1O` [Ap5A], the Ki was 0.23 µM.

For `Nc1ncnc2c1ncn2[C@@H]1O[C@H](COP(=O)(O)OP(=O)(O)OP(=O)(O)O)[C@@H](O)[C@H]1O` [p3A], the inhibition constant Ki is 0.86 µM.

The experiment is the same for the next values; noted with them: ref [40]; cited from earlier work.
With `O=P(O)(O)OP(=O)(O)O` [P2i, pyrophosphate], the inhibitory constant (Ki) was 170 µM.

`O=P(O)(O)O` [Pi, orthophosphate]: the inhibition constant (Ki) is 4600 µM.

The experiment is the same for the next values; noted with them: ref [41]; cited from earlier work.
Consider `Nc1ncnc2c1ncn2[C@@H]1O[C@H](COP(=O)(O)OP(=O)(O)O)[C@@H](O)[C@H]1O` [p2A], for which the inhibition constant (Ki) was 1.2 µM.

Staying with this experiment, now noted: ref [42]; cited from earlier work.
Consider `O=c1ccn([C@@H]2O[C@H](COP(=O)(O)O)[C@@H](O)[C@H]2O)c(=O)[nH]1` [pU], for which the Ki is 4000 µM.

The experiment is the same for the next values; noted with them: ref [43]; cited from earlier work.
`O=c1ccn([C@@H]2O[C@H](COP(=O)(O)OP(=O)(O)O)[C@@H](O)[C@H]2O)c(=O)[nH]1` [p2U]: the Ki was 650 µM.
